In data set [1] the target is 5HT1A receptor (Rattus norvegicus (Rat), UniProt P19327). The data set is described as follows: 5HT1A receptor binding assay (3H-8-OH-DPAT). Here is the method:
Preparation of 5HT1A Membrane
Incubation at 37° C. was conducted for 10 min, the weight of the tubes were adjusted using a balance after incubation. […] Centrifugation was conducted and repeated 3 times.
Materials for the Receptor Binding Assay

Data set [2] addresses 5HT2A receptor (Rattus norvegicus (Rat), UniProt P14842). The data set is described as follows: 5HT2A receptor binding assay ([3H]-Ketanserin).
Data set [3] concerns the target D3 receptor (Homo sapiens (Human), UniProt P35462). The data set can be described thus: D3 receptor competitive binding assay ([3H]-Spiperone, HEK-293 cells). The method, then: After the cells were centrifuged at 1000 rpm for 5 min, the supernatant was discarded, and the cell pellet was collected and stored in a -20° C. fridge for reservation. It was re-suspended with Tris-Cl (pH 7.4) in the assay. […] Tris was divided into aliquots by […] Technology Inc. Procedures Competitive binding test for receptors: 20 μl of each of the test compounds and 20 μl of the radioactive ligand together with 160 μl of the receptor proteins were added into the reaction tubes, and the final concentrations of the test compound and the positive drug were all 10 μmol/L. After 50 min of incubation in 30° C. water bath, the tubes were immediately moved to ice bath to terminate the reactions. GF/C glass fiber filter papers were used for rapid sucking filtration on a Millipore cell sample collector, elution buffer (50 mM Tris-HCl, PH 7.4) was applied for 3 ml×3 times, and microwave was applied for 4-5 min for drying. The filter papers were moved into 0.5 ml centrifuge tubes, and 500 μl of lipid-soluble scintillation solution was added. The tubes were allowed to stand still for over 30 min in dark, and the intensities of radioactivity were measured by a counter.

Data set [4] deals with 5HT2C receptor (Rattus norvegicus (Rat), UniProt P08909). The data set can be described thus: 5HT2C receptor binding assay ([3H]-mesulergine).
Chain of 5HT2C receptor (P08909 33-460): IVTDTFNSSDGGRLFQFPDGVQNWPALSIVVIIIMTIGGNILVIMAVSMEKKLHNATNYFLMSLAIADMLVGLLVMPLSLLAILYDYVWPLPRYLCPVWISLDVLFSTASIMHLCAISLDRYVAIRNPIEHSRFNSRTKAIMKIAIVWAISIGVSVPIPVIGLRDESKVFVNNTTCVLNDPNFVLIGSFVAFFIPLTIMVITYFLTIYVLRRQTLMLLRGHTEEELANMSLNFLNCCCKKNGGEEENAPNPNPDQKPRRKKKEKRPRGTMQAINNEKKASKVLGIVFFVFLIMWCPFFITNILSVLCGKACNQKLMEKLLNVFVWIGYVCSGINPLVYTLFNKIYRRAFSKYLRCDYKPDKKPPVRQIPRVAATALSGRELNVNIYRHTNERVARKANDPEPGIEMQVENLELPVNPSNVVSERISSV
Data set [5] has as its system mice of Kunming breed. The data set can be described thus: MK-801 induced high activity. The following applies: po, mice; for ED50: Mus musculus. The class given is in vivo. The method, then:
Healthy mice of Kunming breed (with half male and half female, (20±2) g) were provided by Qinglongshan Animal Cultivation Center, Nanjing.
Ascorbic acid was provided by Sinopharm Chemical Reagent Co. Ltd.
Tween 80, with the concentration of 10%.
Subsequently, the spontaneous activities of the mice of each group in 90 min were measured.

In data set [6] the test system is KM mice. The data set can be described thus: Apomorphine induced clambering assay of mice. The class given is in vivo. The settings on record: for ED50: Mus musculus, read-out: apomorphine induced clambering ED50; for ED50 / apomorphine induced clambering ED50: po, mice; for Scoring (value), apomorphine induced clambering: x ± s, n = 10. The method, then: Apomorphine Induced Clambering Assay of Mice
Healthy KM mice (male, with body weight of 18-22 g) were provided by Qinglongshan Animal Cultivation Center, Nanjing.
Apomorphine provided by Sigma Company was dissolved in 0.9% NaCl (containing 0.1% vitamin C) before use, and was freshly formulated before use.
Vitamin C, F20061113, was provided by Sinopharm Chemical Reagent Co. Ltd.
Sodium chloride injection, H32026305, was provided by Xuzhou No. 5 Pharmaceutical Factory Co. Ltd.
Instruments: self-made clambering cage, chronograph.
Procedures: apomorphine induced clambering assay of mice
After 5 min of adaptation, the behaviors of the mice at 10-11, 20-21, and 30-31 min after the injection of apomorphine were observed and scored. Scoring criteria: 4 paws on the floor was scored as 0; 2 forepaws on the cage was scored as 1; and 4 paws on the cage was scored as 2.

A short description of data set [7]: Catalepsy assay. The following applies: both, Kunming (KM), mouse, po. Here is the method: Healthy mice of Kunming breed (with half male and half female, (22±2) g) were provided by Qinglongshan Animal Cultivation Center, Nanjing.
The durations for the mice to maintain the posture with the two forepaws on the bars were recorded, and 30 s of spasticity without moving was considered as the positive response. In the case the forepaws of the mice were not put down persistently, the observation was terminated at 60 s. The numbers of animals with positive response in each of the compound dosage groups were counted.

Data set [8] can be described thus: in vivo. The following applies: both sexes, mouse, in vivo, po. Here is the method:
(§1) Limit Test of Sequential Assay
(§2) KM mice (half male and half female) were randomly divided into several groups (with 2-5 mice in each group), which were respectively the 2000 mg/kg groups for each compound, and the solvent group. 0.2 ml/10 g were administered intragastrically. The death of the animals in 3 days were observed. (In the case 3 or more animals survived in 3 days without notable abnormity in their life states, the observation was continued until the assay was completed in 7 days. In the case 3 or more animals died in 3 days, the median lethal dose method was used to determine the LD50).
(§3) Pre-Assay for the Median Lethal Dose Method
(§4) 0.2 ml/10 g were administered intragastrically, and the death of the animals in 1-3 days were observed.

The target of data set [9] is D2 receptor (Rattus norvegicus (Rat), UniProt P61169). The data set is described as follows: D2 receptor inhibition binding assay (3H-Spiperone).
Chain of D2 receptor (P61169 whole entry): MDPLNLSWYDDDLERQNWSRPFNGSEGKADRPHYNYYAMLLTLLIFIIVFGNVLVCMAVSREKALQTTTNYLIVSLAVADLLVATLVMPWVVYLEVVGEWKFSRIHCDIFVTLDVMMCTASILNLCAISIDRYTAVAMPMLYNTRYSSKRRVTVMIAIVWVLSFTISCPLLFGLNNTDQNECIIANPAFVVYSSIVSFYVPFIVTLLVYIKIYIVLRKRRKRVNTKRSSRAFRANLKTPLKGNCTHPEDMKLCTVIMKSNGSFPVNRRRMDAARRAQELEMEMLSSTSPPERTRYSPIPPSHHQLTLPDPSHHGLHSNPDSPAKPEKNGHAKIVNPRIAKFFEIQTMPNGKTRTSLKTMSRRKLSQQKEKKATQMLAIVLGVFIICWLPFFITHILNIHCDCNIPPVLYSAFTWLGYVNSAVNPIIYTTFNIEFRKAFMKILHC
Method: Rats were sacrificed by cervical dislocation on ice. Cerebral cortex was rapidly taken, and 2 cerebral cortexes were combined into a centrifuge tube, to which 3 ml of buffer (0.05 M Tris-HCl buffer, containing NaCl 120 mM, KCl 5 mM, MgCl2 1 mM, CaCl2 1 mM) was added, homogenization was conducted for 3-4 s at level 4 for four times, and then 5 ml of buffer was then added. The weight of the homogenized tubes were adjusted using a balance, and centrifugation was conducted at 12000 r, 4° C. for 20 min. The supernatant was discarded, and 3 ml of B solution was added. Vortex mixer was used for blending, and then 5 ml of B solution was added. Centrifugation was conducted and repeated 3 times. After the centrifugations, the supernatant was discarded, and the pellets were stored at −80° C. for future use.
Beckman LS-6500 Multi-function Liquid Scintillation Counter was used.
(1) The prepared membrane was first applied with appropriate amount of homogenized liquid, and homogenizer was used for evenly dispersing. 15 tubes were mixed into a 100 ml container, and appropriate amount of homogenized liquid was added to give 50 ml of membrane suspension, which was reserved for future use.
(2) 100 μL of membrane preparation and 100 μL of buffer were added into each reaction tube.
(3) 100 μL of homogenized liquid was added into the total binding tube (TB), 100 μL of Butaclamol (final concentration 10^−5 M) was added into the non-specific binding tube (NB), and 100 μL of the test compound (final concentration 10^−5 M) was added into the specific binding tube (SB) for each compound.
(5) Each of the reaction tubes was incubated at 37° C. for 20 min. After the reaction was completed, the bound ligands were rapidly filtered under reduced pressure, and the ice-chilled assay buffer was used for adequate washing. The filter was taken out and put into a 3 ml scintillation vial, and 2 ml of toluene scintillation solution was added and blended.
(6) The scintillation vials were put into Liquid Scintillation Counter for counting. Inhibitory rate (I %)=(Total binding tube cpm−compound cpm)/(Total binding tube cpm−non-specific binding tube cpm)×100%
Each assay for the compounds was conducted in duplicate.
The subject of data set [10] is KM mice. The data set is described as follows: in vivo. The settings on record: po, mice, single intragastric administration. Here is the method: as §1, §2, §3, §4
The mark [11] stands for this setting: mice, single intragastric administration, read-out: LD50.

Read-outs that look alike come from different tables or passages of the source. Bounds are passed on as bounds.

We go through seven molecules from patent US9018213B2, “Alicyclic[c] benzopyrone derivatives and uses thereof” (Huazhong University of Science & Technology, priority 2011, dated 2015).

Chain of D3 receptor (P35462 whole entry): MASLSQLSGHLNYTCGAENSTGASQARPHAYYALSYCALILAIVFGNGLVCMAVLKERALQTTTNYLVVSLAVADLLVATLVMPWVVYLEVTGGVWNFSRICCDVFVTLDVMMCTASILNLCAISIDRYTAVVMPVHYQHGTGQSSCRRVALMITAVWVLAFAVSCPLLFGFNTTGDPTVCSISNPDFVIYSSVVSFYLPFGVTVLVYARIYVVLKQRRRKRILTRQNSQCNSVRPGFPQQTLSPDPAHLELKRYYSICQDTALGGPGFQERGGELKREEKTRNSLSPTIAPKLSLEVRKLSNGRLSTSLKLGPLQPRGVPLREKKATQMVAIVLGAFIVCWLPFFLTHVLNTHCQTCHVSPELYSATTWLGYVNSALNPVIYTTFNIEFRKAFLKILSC
Chain of 5HT1A receptor (P19327 whole entry): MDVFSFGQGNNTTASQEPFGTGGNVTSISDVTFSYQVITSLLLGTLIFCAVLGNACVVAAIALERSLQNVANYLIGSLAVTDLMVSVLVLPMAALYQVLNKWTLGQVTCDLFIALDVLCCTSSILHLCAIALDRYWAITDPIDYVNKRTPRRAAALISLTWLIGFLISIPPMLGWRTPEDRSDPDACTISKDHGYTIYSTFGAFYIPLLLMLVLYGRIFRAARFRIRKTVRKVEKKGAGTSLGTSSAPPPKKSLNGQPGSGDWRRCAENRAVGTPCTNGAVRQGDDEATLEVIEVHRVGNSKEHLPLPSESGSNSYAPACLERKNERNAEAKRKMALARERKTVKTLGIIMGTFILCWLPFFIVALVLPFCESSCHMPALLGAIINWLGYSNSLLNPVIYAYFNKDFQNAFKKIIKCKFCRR
Chain of 5HT2A receptor (P14842 whole entry): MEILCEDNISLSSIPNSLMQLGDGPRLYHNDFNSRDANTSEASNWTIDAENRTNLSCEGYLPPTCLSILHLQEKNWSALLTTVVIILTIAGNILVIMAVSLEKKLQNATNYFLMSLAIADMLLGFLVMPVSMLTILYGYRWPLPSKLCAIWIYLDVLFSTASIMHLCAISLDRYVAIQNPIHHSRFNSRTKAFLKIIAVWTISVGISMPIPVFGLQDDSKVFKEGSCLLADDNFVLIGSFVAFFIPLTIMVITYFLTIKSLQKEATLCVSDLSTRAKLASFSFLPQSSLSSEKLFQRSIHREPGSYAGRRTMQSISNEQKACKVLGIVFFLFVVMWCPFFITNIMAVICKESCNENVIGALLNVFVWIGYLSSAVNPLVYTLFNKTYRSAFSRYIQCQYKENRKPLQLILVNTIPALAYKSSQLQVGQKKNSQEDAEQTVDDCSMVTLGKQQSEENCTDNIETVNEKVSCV

One may read the IC50 as the midpoint of a concentration-inhibition curve. Read a high IC50 as lower potency. Broadly, the ED50 is the dose that gives a 50% effect, or the effect in half of the subjects. As usually defined, the LD50 is the dose expected to kill half of the subjects tested. On to `O=c1oc2c(Cl)c(OCCCCN3CCC(c4noc5cc(F)ccc45)CC3)ccc2c2c1CCC2` [Compound 15, 7-{4-[4-(3-(6-fluoro-benzisoxazole)-1-piperidyl)-butoxy]}-6-chloro-2,3-dihydro-1H-cyclopenteno[c]benzopyran-4-one], for which the IC50 worked out at 0.73 nM in data set [1]; 0.29 nM in [2]; 8.6 nM in [3]; 1890 nM in [4]; 8.1 nM in data set [9]. For the same molecule, the ED50 was 1.25 mg/kg in data set [5], 0.56 mg/kg in [6] and 98.9 mg/kg in [7] (in vivo). The “Scoring (value), apomorphine induced clambering” value (shortened to “Scoring (value)”) in [6] (dosage 0.1 mg/kg) is listed as 4.75 ± 1.58; in [6] (dosage 0.3 mg/kg), 3.38 ± 0.92; in data set [6] (dosage 1 mg/kg), 3.00 ± 1.60; in [6] (dosage 3 mg/kg), 0.50 ± 0.76. Besides, in data set [8] (setting [11]), the LD50 was more than 2000 mg/kg.

On to `O=C(CCCN1CCC(O)(c2ccc(Cl)cc2)CC1)c1ccc(F)cc1` [haloperidol], for which the “MK-801 induced high activity ED50” value in data set [5] was 7.42 mg/kg. Also, the ED50 in data set [6] came to 0.1 mg/kg; in data set [7], 0.44 mg/kg. Also, the “Scoring (value)” value is 4.50 ± 1.78 in [6] (dosage 0.1 mg/kg); 1.50 ± 1.27 in [6] (dosage 0.13 mg/kg); 2.20 ± 1.69 in [6] (dosage 0.174 mg/kg); 0.80 ± 0.79 in data set [6] (dosage 0.23 mg/kg); 0.70 ± 0.82 in [6] (dosage 0.3 mg/kg); 0.60 ± 1.58 in [6] (dosage 1 mg/kg). Besides, the LD50 in data set [8] (setting [11]) and in data set [10] was 20 mg/kg each time.

As to `CN1CCN(C2=Nc3cc(Cl)ccc3Nc3ccccc32)CC1` [clozapine], the “MK-801 induced high activity ED50” value in data set [5] is given as 2.28 mg/kg. Further, the “Scoring (value)” value was determined as 5.50 ± 0.76 in [6] (dosage 10 mg/kg), 4.60 ± 2.07 in data set [6] (dosage 17.4 mg/kg), 3.70 ± 2.21 in data set [6] (dosage 23 mg/kg) and 0.60 ± 1.07 in data set [6] (dosage 30 mg/kg). For the same molecule, the “apomorphine induced clambering ED50” value in data set [6] is 17.92 mg/kg. The same molecule registered an ED50 in data set [7] of more than 50 mg/kg. Besides, the LD50 in data set [8] (setting [11]) and in [10] was 150 mg/kg throughout.

For the molecule `O=c1oc2cc(OCCCN3CCC(c4noc5cc(F)ccc45)CC3)ccc2c2c1CCC2` [Compound 5, 7-{3-[4-(3-(6-fluoro-benzisoxazole)-1-piperidyl)-n-propoxy]}-2,3-dihydro-1H-cyclopenteno[c]benzopyran-4-one], the IC50 in data set [1] came to 0.03 nM; in data set [2], 0.56 nM; in data set [3], 8.9 nM; in [4], 1160 nM; in [9] it was 5.6 nM. Further, the results for the ED50 in data set [5], in data set [6] and in data set [7] (in vivo) were 0.35 mg/kg, 0.68 mg/kg and 168 mg/kg, respectively. For the same molecule, the “Scoring (value)” value in data set [6] (dosage 0.1 mg/kg) came out at 4.60 ± 2.07; in data set [6] (dosage 0.3 mg/kg), 3.00 ± 1.94; in [6] (dosage 1 mg/kg), 0.90 ± 1.20; in data set [6] (dosage 3 mg/kg) it was 0.20 ± 0.63. Moreover, the LD50 in data set [8] (setting [11]) was more than 2000 mg/kg.

With `COc1ccccc1N1CCN(CCCCOc2ccc3c4c(c(=O)oc3c2)CCCC4)CC1` [Compound 19, 3-{4-[4-(2-methoxyphenyl)piperazin-1-yl]-butoxy}-7,8,9,10-tetrahydrobenzo[c]benzopyran-6-one], the IC50 in data set [1] was 4.2 nM; in [2], 1.8 nM; in [3] it was 13.2 nM; in data set [4] it was 1120 nM; in data set [9], 3.6 nM. The ED50 in data set [5] is 2.35 mg/kg; in data set [6] it was 0.15 mg/kg; in data set [7] (in vivo), 156 mg/kg. Further, the “Scoring (value)” value amounted to 4.90 ± 1.10 in data set [6] (dosage 0.3 mg/kg), 0.75 ± 1.04 in data set [6] (dosage 0.52 mg/kg), 1.50 ± 1.20 in [6] (dosage 1 mg/kg) and 0.40 ± 0.97 in data set [6] (dosage 3 mg/kg). The LD50 in data set [8] (setting [11]) is more than 2000 mg/kg.

For `O=c1oc2c(Cl)c(OCCCCN3CCN(c4nsc5ccccc45)CC3)ccc2c2c1CCC2` [Compound 14, 7-{4-[4-(3-(1,2-benzisothiazole)-1-piperazinyl)-n-butoxy]}-6-chloro-2,3-dihydro-1H-cyclopenteno[c]benzopyran-4-one], the IC50 amounted to 0.86 nM in data set [1]; 0.82 nM in data set [2]; 15.1 nM in data set [3]; 1490 nM in [4]; 10.1 nM in [9]. Further, the ED50 in data set [5] came out at 0.82 mg/kg; in [6] it was 0.25 mg/kg; in [7] (in vivo), 189 mg/kg. Besides, the “Scoring (value)” value stood at 5.30 ± 1.25 in data set [6] (dosage 0.1 mg/kg); 2.10 ± 1.85 in [6] (dosage 0.3 mg/kg); 1.25 ± 1.75 in [6] (dosage 1 mg/kg); 0.25 ± 0.71 in data set [6] (dosage 3 mg/kg); 0.80 ± 1.40 in data set [6] (dosage 10 mg/kg). The LD50 in data set [8] (setting [11]) is more than 2000 mg/kg.

As to `OCCOCCN1CCN(C2=Nc3ccccc3Sc3ccccc32)CC1` [quetiapine], the “MK-801 induced high activity ED50” value in [5] is given as 10.1 mg/kg. Also, the “Scoring (value)” value worked out at 4.00 ± 2.05 in data set [6] (dosage 3 mg/kg); 3.00 ± 1.63 in data set [6] (dosage 10 mg/kg); 4.00 ± 2.31 in [6] (dosage 30 mg/kg); 2.60 ± 2.55 in data set [6] (dosage 100 mg/kg); 0.50 ± 1.07 in data set [6] (dosage 300 mg/kg). For the same molecule, the “apomorphine induced clambering ED50” value in data set [6] is recorded as 2.02 mg/kg. Also, in data set [7], the ED50 turned out to be 800 mg/kg. In [8] (KM), this molecule came in with an LD50 of 800 mg/kg.
